According to US8906357B2, “Treatment of multiple sclerosis with masitinib” (AB Science, priority 2010, dated 2014):
Several values for one entry are separate records, joined by “and”; a condition that tells them apart may be missing. Equal values may be shown once. Entries after “also recorded” stand apart in the source; their conditions may differ. Read-outs that look alike come from different tables or passages of the source.

How the values were obtained:
[1] = test system: patients with RRMS or rSPMS
Procedure: A multicenter, open-label, non-controlled, proof-of-concept clinical trial, designed to evaluate the efficacy and safety of oral masitinib administered at 3 or 6 mg/kg/day for 36 weeks in patients with RRMS or rSPMS.
Eligible patients should have had at least one active gadolinium lesion at any of the three MRI performed during an 8 week run-in period and an EDSS score within the range of 2.0 to 6.5 inclusive.

[2] = test system: human cord blood MCs; settings: cited from earlier work
[3] = test system: mouse EAE model of MS; test: Mouse EAE model of MS (MOG-induced disease in C57BL/6 mice), daily clinical score; format: in vivo; settings: days 26-35
Procedure: The ability and effect of masitinib in the inhibition of MC function in MS was explored using the EAE murine model. The myelin oligodendrocyte glycoprotein (MOG)-induced disease in C57BL/6 mice is considered to be a model for all progressive foinis of MS. C57BL/6 mice were immunized with 300 ng MOG35-55 peptide (an immunological target in the human disease) on days 0 (in complete Freund's adjuvant) and 7 (in incomplete Freund's adjuvant) and 250 ng pertussis was administered intravenously on days 0 and 2. Mice were scored daily by visual assessment of symptoms on a scale of 0-5 where 1 denotes a flaccid tail, 2 denotes hind limb weakness, 3 denotes hind limb paralysis, 4 denotes an inability to right from supine and 5 indicates death. Statistical analyzes of significance between mean clinical scores were performed using Bonferroni's Multiple Comparison Test-One way ANOVA or paired t tests. Statistical analyses were performed for the daily intervals between days 26-35. Five mice per experimental group were administrated the following treatment every day from the first day of immunization (day 0): • Vehicle (PBS) • Masitinib 25 mg/kg, 2 times per day, intraperitoneal injection • Masitinib 12.5 mg/kg, 2 times per day, intraperitoneal injection

[4] = test system: patients with PPMS or rfSPMS;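 note: oral masitinib started at 3 or 6 mg/kg/day split twice daily, with up to two 1.5 mg/kg/day increases permitted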
Procedure: Patients were randomized to receive orally administered masitinib at an initial dose of 3 or 6 mg/kg/day b.i.d, with two dose increases of 1.5 mg/kg/day permitted in the event of lack of activity and manageable toxicity. Masitinib and placebo were supplied as 100 or 200 mg tablets. The initial study had three arms but this was amended to close the 3 mg/kg/day bid arm after approximately 1 year.
MS evaluations were performed at screening, at week 0 (baseline), at month 1, 2, 3, 6, 9, 12, 18 and 24 or at the withdrawal visit. […] Masitinib tolerance was assessed by clinical and biological safety parameters.
Patients having SPMS with relapse in the 2 years before inclusion were excluded. No oral or parenteral concomitant corticosteroids were permitted for the duration of study, except in case of protocol-defined demyelinating event (methylprednisolone at 1 g/day for 3 days). No immunomodulating, immunosuppressing, chemotherapy and paracetamol concomitant administration were permitted for the duration of the study. Concomitant analgesic without anti-inflammatory action and oral narcotic analgesic were not allowed on the day of a study visit until all efficacy evaluations were completed. Concomitant physical therapy was allowed in patients already receiving such therapy at study entry. To manage rash, a mandatory concomitant treatment (cetirizine, 10 mg/day for 30 days) was combined with masitinib.
The latter is a multidimensional, MS-specific outcome measure, comprising of a timed 25-foot walk (T25FW) test measuring leg function and ambulation, a 9-hole peg test (9-HPT) measuring arm and hand function and a Paced Auditory Serial Addition Test 3 seconds (PASAT-3″) measuring cognitive function. The MSFC was calculated as described in the National Multiple Sclerosis Society MSFC administration and scoring manual by averaging the z-scores from each components of the MSFC.
Adverse events (AE) were described by duration, intensity, relation to masitinib and course of action. Intensities were graded either mild (signs and symptoms are present without functional repercussions), moderate (there are functional repercussions without putting the patient's health at risk), or severe (functional alterations or incapacity or definite risk for the patient health).

[5] = test system: wild-type and juxtamembrane-mutated c-Kit receptors; settings: results in cell cycle arrest and apoptosis of c-Kit dependent cell lines; cited from earlier work
[6] = during the treatment period (W0 to W36)

Cc1ccc(NC(=O)c2ccc(CN3CCN(C)CC3)cc2)cc1Nc1nc(-c2cccnc2)cs1 [masitinib, 4-(4-methylpiperazin-1-ylmethyl)-N-[4-methyl-3-(4-pyridin-3ylthiazol-2-ylamino)phenyl]benzamide]
tolerability overall ([1]; 3 or 6 mg/kg/day oral): relatively well tolerated
EDSS ([1]; 36-week study): neither improvement nor progression
average number of T1 lesions ([1]; after 12 weeks of treatment (run-in period 5.35), 4 patients): 1.5 lesions
average volume of T1 lesions ([1]; after 12 weeks of treatment (run-in period 777 mm^3)): 54 mm^3
average number of T1 lesions ([1]; after 20 weeks of treatment (run-in period 5.35), 4 patients): 0.25 lesions
average volume of T1 lesions ([1]; after 20 weeks of treatment (run-in period 777 mm^3)): 40 mm^3
T1 gadolinium-enhancing lesion number ([1]; all patients, at consecutive time points during the study): reduced to none
patients in whom both number and volume of T1 lesions decreased ([1]; during masitinib treatment): 3/4
average number of T1 lesions [1, 6]: 1.0 lesion
average volume of T1 lesions [1, 6]: 99 mm^3
number and volume of T2 hyperintense lesions and T1 hyperintense lesions ([1]; during treatment): remained globally stable
death ([1]; human, in vivo): No death
total AEs reported during the treatment period ([1]; in two patients, all at doses of ≧6 mg/kg/day): 11
patients experiencing relapses during treatment ([1]; one patient out of four, three relapses): 25%
EDSS score maintained ([1]; patient in the study extension phase, to W84): 2.5
relapse-free duration of individual patients ([1]; three patients, respectively): 7 months and 11.5 months and 25 months
FcER1-mediated degranulation [2]: inhibition
p value, mean clinical score, vehicle versus masitinib 12.5 mg/kg ([3]; 12.5 mg/kg 2 times per day intraperitoneal): p < 0.001
p value, mean clinical score, vehicle versus masitinib 25 mg/kg ([3]; 25 mg/kg 2 times per day intraperitoneal): p < 0.001
p value, mean clinical score, masitinib 25 mg/kg versus masitinib 12.5 mg/kg ([3]; 2 times per day intraperitoneal): p < 0.001
mean clinical score relative to vehicle ([3]; both doses (25 and 12.5 mg/kg 2 times per day i.p.)): significant differences in mean clinical score; also recorded: significant reduction in disease
MSFC mean percentage change from baseline ([4]; All (masitinib n = 24), M3, LOCF): 78%
MSFC mean percentage change from baseline ([4]; All (masitinib n = 24), M3, LOCF, listed as Masitinib): 78 ± 284%
MSFC mean percentage change from baseline ([4]; All (masitinib n = 24), M6, LOCF): 156 ± 274%
MSFC mean percentage change from baseline ([4]; All (masitinib n = 24), M9, LOCF): 70 ± 267%
MSFC mean percentage change from baseline ([4]; All (masitinib n = 24), M12, LOCF): 103 ± 189%
MSFC mean percentage change from baseline ([4]; All (masitinib n = 24), M18, LOCF): +96%
MSFC mean percentage change from baseline ([4]; All (masitinib n = 24), M18, LOCF, listed as Masitinib): 96 ± 191%
MSFC mean percentage change from baseline ([4]; PPMS (masitinib n = 9), M3, LOCF): +108%
MSFC mean percentage change from baseline ([4]; PPMS (masitinib n = 9), M3, LOCF, listed as Masitinib): 108 ± 435%
MSFC mean percentage change from baseline ([4]; PPMS (masitinib n = 9), M6, LOCF): 202 ± 353%
MSFC mean percentage change from baseline ([4]; PPMS (masitinib n = 9), M9, LOCF): 56 ± 410%
MSFC mean percentage change from baseline ([4]; PPMS (masitinib n = 9), M12, LOCF): 134 ± 268%
MSFC mean percentage change from baseline ([4]; PPMS (masitinib n = 9), M18, LOCF): +134%
MSFC mean percentage change from baseline ([4]; PPMS (masitinib n = 9), M18, LOCF, listed as Masitinib): 134 ± 268%
EDSS score course ([4]; PPMS population): stable
Mean 9-HPT raw score change ([4]; at month 18): -1.6 s
Mean PASAT-3″ raw score change ([4]; at month 18): +6.0
Mean T25FW raw score change ([4]; at month 18): +1.6 seconds
death ([4]; during the study): No death
MSQLI subscale SSS, mean percentage change from baseline ([4]; ex-post, n = 4): −6.9 ± 29.0%
MSQLI subscale VIS, mean percentage change from baseline ([4]; ex-post, n = 4): 0 ± 0%
MSQLI subscale SF-36, mean percentage change from baseline ([4]; ex-post, n = 5): 12.7 ± 24.3%
MSQLI subscale PDQ, mean percentage change from baseline ([4]; ex-post, n = 6): 1.1 ± 11.7%
MSQLI subscale BoCS, mean percentage change from baseline ([4]; ex-post, n = 7): −3.1 ± 8.8%
MSQLI subscale MSSS, mean percentage change from baseline ([4]; ex-post, n = 7): 6.2 ± 9.4%
MSQLI subscale PES, mean percentage change from baseline ([4]; ex-post, n = 7): −3.9 ± 12.2%
MSQLI subscale BLCS, mean percentage change from baseline ([4]; ex-post, n = 8): 21.5 ± 72.4%
MSQLI subscale MFIS, mean percentage change from baseline ([4]; ex-post, n = 8): −3.0 ± 14.9%
MSQLI subscale MHI, mean percentage change from baseline ([4]; ex-post, n = 9): 15.2 ± 25.99%
number of AEs reported by investigators ([4]; masitinib group n = 27): 100
patients reporting AEs (adverse events) ([4]; masitinib group n = 27): 85%
patients reporting a serious, non-fatal AE ([4]; masitinib group n = 27): 33%
patients reporting a severe AE suspected to be related to therapy ([4]; masitinib group n = 27): 26%
patients with an AE leading to masitinib discontinuation ([4]; masitinib group n = 27): 26%
Asthenia, number of patients ([4]; masitinib n = 27): 11
Asthenia, percent of patients ([4]; masitinib n = 27): 41%
Diarrhea, number of patients ([4]; masitinib n = 27): 3
Diarrhea, percent of patients ([4]; masitinib n = 27): 11%
Nausea, number of patients ([4]; masitinib n = 27): 7
Nausea, percent of patients ([4]; masitinib n = 27): 26%
Rash, number of patients ([4]; masitinib n = 27): 3
Rash, percent of patients ([4]; masitinib n = 27): 11%
Urinary Tract Infection, number of patients ([4]; masitinib n = 27): 3
Urinary Tract Infection, percent of patients ([4]; masitinib n = 27): 11%
Weight Decreased, number of patients ([4]; masitinib n = 27): 3
Weight Decreased, percent of patients ([4]; masitinib n = 27): 11%
effect on MSQLI subscales (SF-36, MFIS, PES, PDQ, MHI, MSSS) ([4]; over the course of treatment): improved
mean change in EDSS ([4]; overall, over 18 months): < 0.5
MSFC mean percentage change from baseline ([4]; rfSPMS (masitinib n = 15), M3, LOCF): +60%
MSFC mean percentage change from baseline ([4]; rfSPMS (masitinib n = 15), M3, LOCF, listed as Masitinib): 60 ± 152%
MSFC mean percentage change from baseline ([4]; rfSPMS (masitinib n = 15), M6, LOCF): 129 ± 223%
MSFC mean percentage change from baseline ([4]; rfSPMS (masitinib n = 15), M9, LOCF): 78 ± 146%
MSFC mean percentage change from baseline ([4]; rfSPMS (masitinib n = 15), M12, LOCF): 84 ± 130%
MSFC mean percentage change from baseline ([4]; rfSPMS (masitinib n = 15), M18, LOCF): +73%
MSFC mean percentage change from baseline ([4]; rfSPMS (masitinib n = 15), M18, LOCF, listed as Masitinib): 73 ± 131%
EDSS score course ([4]; rfSPMS population): remained stable
brain volume (MS-related imaging) ([4]; throughout the study, masitinib group): two patients experienced a brain volume increase
inhibitory effect on c-Kit receptors [5]: strong inhibitory effect
